In US20220228985A1, “FLUORESCENT COMPOSITION FOR DETECTING BIOLOGICAL MATERIAL” (Bioacts Corporation, priority 2021, published 2022):

Test system: red blood cells
Assay: Microscopic analysis of hemolytic efficacy of surfactant compound
Type: cell-based
Details: E-check (low concentration), microscope X200 DIC, control PBS, FIG. 4
Experimental: Microscopic analysis was performed to visually confirm the blood hemolysis effect of the blood analysis reagent prepared with the compound of Chemical Formula 3 and the compound of Chemical Formula 4 as the surfactant compound. The blood analysis reagent prepared in E-check (low concentration), a quality control reagent, was treated and microscopic analysis was performed. The analysis was performed with a Nikon ECLIPSE microscope, and measured under X200 DIC filter conditions. As a control, a sample obtained by treating PBS in an E-check reagent was used.

| SMILES | hemolysis of red blood cells |
| --- | --- |
| CCCCCCCCCCCCCCn1cc(COCCOCCOCCOCCOCCOCCOCCOCCOCCOCCOCCOCCOCCOCCOCCOCCOCCOCCOCCOCCOCCO)nn1 [Chemical Formula 4] | excellent efficacy in hemolysis of red blood cells |
| CCCCCCCCn1cc(COCCOCCOCCOCCOCCOCCOCCOCCOCCOCCO)nn1 [Compound 3b] | most cleanly hemolyzed |
